Experiments:
[1] = tested on: alkaline phosphatase activity in T47D cells; experiment: Effects of progestins and antiprogestins on alkaline phosphatase activity in T47D cells; assay type: cell-based; details: Homo sapiens; for inhibition at 3 µM: at 3000 nM; for IC50: antagonist mode in the presence of 1 nM progesterone, 24 hours; for inhibition at 0.3 µM: at 300 nM
Procedure: The purpose of this example is to identify progestins or antiprogestins by determining a compound's effect on alkaline phosphatase activity in T47D cells.
A. Reagents: • Culture medium: Dulbecco's Modified Eagle Medium (DMEM):F12 (1:1) (GIBCO, BRL) supplemented with 5% (v/v) charcoal stripped fetal bovine serum (not heat-inactivated), 100 U/mL penicillin, 100 μg/mL streptomycin, and 2 mM of the GlutaMax® reagent (GIBCO, BRL). • Alkaline phosphatase assay buffer: • I. 0.1M Tris-HCl, pH 9.8, containing 0.2% Triton® X-100 reagent • II. 0.1M Tris-HCl, pH 9.8, containing 4 mM p-nitrophenyl phosphate (Sigma).
Frozen T47D cells are thawed in a 37° C. water bath and diluted to 280,000 cells/mL in culture medium. To each well in a 96-well plate (Falcon, Becton Dickinson Labware), was added 180 μL of diluted cell suspension. Twenty μL of reference or test compounds diluted in the culture medium is then added to each well. When testing for progestin antagonist activity, reference antiprogestins or test compounds are added in the presence of 1 nM progesterone. The cells are incubated at 37° C. in a 5% CO2/humidified atmosphere for 24 hours. For high throughput screening, one concentration of each compound will be tested at 0.3 μg/mL. Based on an average molecular weight of 300 g/mol for the compounds in the library, the concentration is approximately 1 μM. Compounds active in this assay can be tested in dose response assays to determine EC50 and IC50.
C. Alkaline Phosphatase Enzyme Assay: • At the end of treatment, the medium is removed from the plate. Fifty μL of assay buffer I is added to each well. The plates are shaken in a titer plate shaker for 15 minutes. Then 150 μL of assay buffer II is added to each well. Optical density measurements are taken at 5 minute intervals for 30 minutes at a test wavelength of 405 nm.
D. Analysis of Results: Analysis of Dose-Response Data • For reference and test compounds, a dose response curve is generated for dose (X-axis) vs. the rate of enzyme reaction (slope) (Y-axis). Square root-transformed data are used for analysis of variance and nonlinear dose response curve fitting for both agonist and antagonist modes. Huber weighting is used to down-weight the effects of outliers. EC50 or IC50 values are calculated from the retransformed values. JMP® software (SAS Institute, Inc.) is used for both one-way analysis of variance and non-linear dose response analysis in both single dose and dose response studies.
E. Reference Compounds • Progesterone and trimegestone are reference progestins and RU486 is the reference antiprogestin. All reference compounds are run in full dose response curves and the EC50 and IC50 values are calculated.

[2] = in the presence of 1 nM progesterone

Question: With `CC1(C)OC(=O)Nc2ccc(C3=CC(=O)OCC3)cc21` [Example 10, 4,4-Dimethyl-6-(6-oxo-3,6-dihydro-2H-pyran-4-yl)-1,4-dihydro-2H-3,1-benzoxazin-2-one] as the molecule, how does the melting point read?
Answer: 235 to 236 °C (dec.)

Question: What does the source list for `C/C(=C\C(=O)O)c1ccc2c(c1)C(C)(C)OC(=O)N2` [Example 15, (2E)-3-(4,4-Dimethyl-2-oxo-1,4-dihydro-2H-3,1-benzoxazin-6-yl)but-2-enoic acid]?
Answer: inhibition at 3 µM [1, 2]: 0%; melting point: 274 to 275 °C (dec.)

Question: With `C/C(=C\C(N)=O)c1ccc2c(c1)C1(CCCCC1)OC(=O)N2` [Example 16, (2E)-3-(2-Oxo-1,2-dihydrospiro[3,1-benzoxazine-4,1′-cyclohexan]-6-yl)but-2-enamide] as the molecule, how does the inhibition at 3 µM [1, 2] read?
Answer: 0%

Question: And the melting point?
Answer: 204 to 207 °C (dec.)

Question: With `CC1(C)OC(=O)Nc2ccc(/C(=C/C(N)=O)c3ccccc3)cc21` [Example 7, (2E)-3-(4,4-Dimethyl-2-oxo-1,4-dihydro-2H-3,1-benzoxazin-6-yl)-3-phenylacrylamide] as the molecule, how does the IC50 [1] read?
Answer: 50 µM

Question: What about the melting point of the same molecule?
Answer: 219 to 220 °C

Question: With `CCC/C(=C\C(N)=O)c1ccc2c(c1)C(CC)(CC)OC(=O)N2` [Example 24, (2E)-3-(4,4-Diethyl-2-oxo-1,4-dihydro-2H-3,1-benzoxazin-6-yl)hex-2-enamide] as the molecule, how does the inhibition at 3 µM [1, 2] read?
Answer: 65%

Question: And the melting point?
Answer: 212 to 213 °C

Question: Which inhibition at 3 µM [1, 2] does the source give for `CCC/C(=C\C=O)c1ccc2c(c1)C(CC)(CC)OC(=O)N2` [Example 26, (2E)-3-(4,4-Diethyl-2-oxo-1,4-dihydro-2H-3,1-benzoxazin-6-yl)hex-2-enal] here?
Answer: 100%

Question: What about the melting point of the same molecule?
Answer: 173 to 179 °C

Question: Which melting point does the source give for `COC(=O)/C=C/c1ccc2c(c1)C(C)(C)OC(=O)N2` [Example 2, Methyl(2E)-3-(4,4-dimethyl-2-oxo-1,4-dihydro-2H-3,1-benzoxazin-6-yl)acrylate] here?
Answer: 204 to 205 °C

Question: With `CC/C(=C\C#N)c1ccc2c(c1)C1(CCCCC1)OC(=O)N2` [Example 19, (2E)-3-(2-Oxo-1,2-dihydrospiro[3,1-benzoxazine-4,1′-cyclohexan]-6-yl)pent-2-enenitrile] as the molecule, how does the inhibition at 0.03 µM ([1]; at 30 nM, in the presence of 1 nM progesterone) read?
Answer: 60%

Question: And the melting point?
Answer: 173 to 174 °C

Question: For `CC1(C)OC(=O)Nc2ccc(/C=C/c3ccno3)cc21` [Example 3, 6-[(E)-2-Isoxazol-5-ylvinyl]-4,4-di-methyl-1,4-dihydro-2H-3,1-benzoxazin-2-one], which melting point is on record?
Answer: 190 to 193 °C

Question: For `COC(=O)/C=C(\c1ccccc1)c1ccc2c(c1)C(C)(C)OC(=O)N2` [Example 11, Methyl(2E)-3-(4,4-dimethyl-2-oxo-1,4-dihydro-2H-3,1-benzoxazin-6-yl)-3-phenylacrylate], which melting point is on record?
Answer: 181 to 182 °C

Question: Which results are given for `CC(C)/C(=C\C#N)c1ccc2c(c1)C1(CCCCC1)OC(=O)N2` [Example 21, (2E)-4-Methyl-3-(2-oxo-1,2-dihydrospiro[3,1-benzoxazine-4,1′-cyclohexan]-6-yl)pent-2-enenitrile]?
Answer: inhibition at 0.3 µM [1, 2]: 60%; melting point: 201 to 203 °C (dec.)

Question: Which results are given for `C/C(=C\C#N)c1ccc2c(c1)C1(CCCCC1)OC(=O)N2` [Example 17, (2E)-3-(2-oxo-1,2-dihydrospiro[3,1-benzoxazine-4,1′-cyclohexan]-6-yl)but-2-enenitrile]?
Answer: inhibition at 0.3 µM [1, 2]: 60%; melting point: 208 to 210 °C (dec.)

Question: With `CC1(C)OC(=O)Nc2ccc(/C=C/C#N)cc21` [Example 8, (2E)-3-(4,4-Dimethyl-2-oxo-1,4-dihydro-2H-3,1-benzoxazin-6-yl)acrylonitrile] as the molecule, how does the melting point read?
Answer: 238 to 240 °C (dec.)

Question: Which IC50 [1] does the source give for `CC1(C)OC(=O)Nc2ccc(/C=C/C(N)=O)cc21` [Example 4, (2E)-3-(4,4-Dimethyl-2-oxo-1,4-dihydro-2H-3,1-benzoxazin-6-yl)acrylamide] here?
Answer: 50 µM

Question: And the melting point?
Answer: 196 to 198 °C

Question: With `CC/C(=C\C(N)=O)c1ccc2c(c1)C1(CCCCC1)OC(=O)N2` [Example 18, (2E)-3-(2-Oxo-1,2-dihydrospiro[3,1-benzoxazine-4,1′-cyclohexan]-6-yl)pent-2-enamide] as the molecule, how does the inhibition at 3 µM [1, 2] read?
Answer: 22%

Question: And the melting point?
Answer: 235 to 238 °C (dec.)

Question: What does the source list for `C/C(=C\C(N)=O)c1ccc2c(c1)C(C)(C)OC(=O)N2` [Example 5, (2E)-3-(4,4-Dimethyl-2-oxo-1,4-dihydro-2H-3,1-benzoxazin-6-yl)but-2-enamide]?
Answer: IC50 [1]: 50 µM; melting point: 198 to 200 °C

Question: With `COC(=O)/C=C/c1ccc2c(c1)C(C)(C)CC(=O)N2` [Example 1, Methyl(2E)-3-(4,4-dimethyl-2-oxo-1,2,3,4-tetrahydroquinolin-6-yl)acrylate] as the molecule, how does the melting point read?
Answer: 174 to 175 °C

Question: Which results are given for `CC1(C)OC(=O)Nc2ccc(/C=C/C(=O)O)cc21` [Example 14, (2E)-3-(4,4-Dimethyl-2-oxo-1,4-dihydro-2H-3,1-benzoxazin-6-yl)acrylic acid]?
Answer: inhibition at 3 µM [1, 2]: 0%; melting point: 260 to 261 °C (dec.)

— patent US20090197878A1, “SUBSTITUTED BENZO[d][1,3]OXAZIN-2(4H)-ONES AND RELATED DERIVATIVES AND THEIR USES FOR MODULATING THE PROGESTERONE RECEPTOR” (Wyeth, priority 2008, published 2009)
